Measured values reported in patent US20220363662A1, “COMPOUNDS AS LXR AGONISTS” (Integral Biosciences Privated Limited, priority 2021, published 2022).

Assays:
mouse splenocytes [1] = experiment: Mouse splenocytes cytotoxicity assay (CTG); type: cell-based; settings: Splenocyte, CD3e/CD28 activated Balb/c splenocytes, 72 hr
Protocol: IC50 values to look at cytotoxicity of compounds on CD3e/CD28 induced splenocytes, was determined in mouse splenocytes isolated from Balb/c mice. Mouse splenocytes (2.5×10^5 cells/well/160 μl) were activated with Anti-mouse CD3e (0.5 μg/mL, coated overnight at 4° C.; Cat #14-0032-82, eBiosciences) and then incubated with serial dilutions of compounds (3 fold, 8 point dose response starting at 30 μM) and treated with Anti-mouse CD28 (1 μg/mL soluble; Cat #16-0289-81, eBiosciences). Splenocytes were further incubated under cell culture conditions for 72 hr after which assay was terminated by addition of CTG. Plate was incubated for 15 min at 37° C., 5% CO2 and luminescence was measured.

mouse splenocytes [2] = experiment: Mouse splenocyte assay, cytokine release (mIFN-γ ELISA); type: cell-based; settings: Balb/c splenocytes, CD3e/CD28 and PMA+Ionomycin induced, read-out: Enhancement of mIFN-γ release by activated Mouse Splenocyte, EC50
Protocol: EC50 values of compounds for enhancement of CD3e/CD28 induced mIFNγ release in mouse splenocytes isolated from Balb/c mice and differentiated (Treg) with PMA+Ionomycin. Mouse splenocytes (2*10^5 cells/well) were activated with Anti-mouse CD3e (0.5 μg/mL, coated overnight at 4° C.; Cat #14-0032-82, eBioscience) and then incubated with Anti-mouse CD28 (1 μg/mL soluble; Cat #16-0289-81, eBiosciences). After 48 hr of incubation serial dilutions of compounds (3 fold, 8 point dose response starting at 1 μM) were left for 6-8 hrs at cell culture conditions and then splenocytes were further incubated with PMA (50 ng/mL final concentration) and 1 μg/mL of Ionomycin (final concentration) and incubated under cell culture conditions overnight after which the supernatant was harvested, diluted to 1:50 and ELISA was performed as per the manufacturer's protocol (mIFN-γ kit; Cat #555138 & 550534, BD Biosciences). Plates were read in Biotek plate reader by measuring absorbance at 450 nm.

LXR beta = target: T1, LXR beta (Homo sapiens, UniProt P55055); experiment: LXR beta agonist assay (Lanthascreen TR-FRET); type: biochemical; settings: LXR beta-LBD 5 nM, read-out: LXR-β EC50
T1 construct: 5 μL of 4×LXR beta-LBD was added to each well (final concentration 5 nM); purchased Thermofisher PV4658
T1 sequence (P55055 222-460 limits assumed): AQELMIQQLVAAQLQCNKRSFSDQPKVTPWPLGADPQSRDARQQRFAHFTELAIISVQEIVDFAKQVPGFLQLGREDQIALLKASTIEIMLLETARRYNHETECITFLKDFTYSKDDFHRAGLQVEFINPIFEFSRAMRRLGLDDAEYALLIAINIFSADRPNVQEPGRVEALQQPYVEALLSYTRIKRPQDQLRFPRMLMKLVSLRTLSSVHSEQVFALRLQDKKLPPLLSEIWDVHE
In short: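 TR-FRET coactivator recruitment: 5 nM LXR beta-LBD with 100 nM Fl-D22 peptide and 10 nM Tb-anti-GST antibody (final) in Coregulator Buffer G, 60 min at 22° C, read hourly up to 4 hours. Duplicate three-fold titrations from 30 μM; EC50 by variable-slope nonlinear regression.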

MDA-MB-231 = experiment: Cell viability assay (resazurin) in MDA-MB-231; type: cell-based; settings: Homo sapiens, 96 hr exposure, read-out: MDA_MB-231 Cell IC50
Protocol: (§1) HepG2 (ATCC® HB-8065™), hepatocellular carcinoma, A549 (ATCC® CCL-185™), lung epithelial carcinoma, MCF7 (ATCC® HTB-22™), mammary gland epithelial carcinoma, MDA-MB-231 (ATCC® HTB-26™), TNBC, MiaPaCa-2 (ATCC® CRL-1420™) & Panc-1 (ATCC® CRL-1469™), pancreatic epithelial carcinoma, HCT116 (ATCC® CCL-247™), colon epithelial carcinoma and U87MG (ATCC® HTB-14™), brain epithelial carcinoma cell lines respectively were seeded in the respective medium (DMEM, Cat #10569044 with 10% FBS, Cat #16000044; Gibco for HepG2, A549, MCF7, MDA-MB-231, MiaPaCa-2, Panc-1, HCT116 and MEM, Cat #11095080 with 10% FBS for U87MG). Cells were allowed to grow at 37° C. for 24 hr in 5% CO2 (culture conditions) in a Nuaire incubator (humidified). Serially diluted compounds (100 μl) were added to the culture plate 24 hr later and the cultures were further incubated in culture conditions for 96 hr. Experiment was terminated at the completion of 96 hr exposure to the drug by replacing the medium with 100 μl of 1 mM of resazurin (R7017; Sigma) prepared in culture medium and the plates were further incubated in culture conditions for 4 hr. Fluorescence was then measured using a multimodal plate reader (Biotek Synergy Neo) at an excitation wavelength of 535 nm and emission wavelength of 590 nm to obtain relative fluorescence units. Data analysis was done by subtracting the background fluorescence (only medium blank) value from each reading and then normalizing with the vehicle control (DMSO treated cells) to obtain percent survival/proliferation. Percent survival at different doses was used to calculate IC50 by fitting the curve to the “four-parameter variable slope logistic model” using Prism Graph Pad.

A549 = experiment: Cell viability assay (resazurin) in A549; type: cell-based; settings: Homo sapiens, 96 hr exposure
Protocol: as §1

HCT116 = experiment: Cell viability assay (resazurin) in HCT116; type: cell-based; settings: Homo sapiens, HCT-116; 96 hr exposure
Protocol: as §1

THP1 = experiment: Cell viability assay in THP1; type: cell-based; settings: Homo sapiens, THP-1
MCF7 = experiment: Cell viability assay (resazurin) in MCF7; type: cell-based; settings: Homo sapiens, 96 hr exposure
Protocol: as §1

HepG2 = experiment: Cell viability assay (resazurin) in HepG2; type: cell-based; settings: Homo sapiens, 96 hr exposure
Protocol: as §1

| Compound | IC50 (mouse splenocytes [1]) [µM] | EC50 (mouse splenocytes [2]) [µM] | EC50 (LXR beta) [µM] | IC50 (MDA-MB-231) [µM] | IC50 (A549) [µM] | IC50 (HCT116) [µM] | IC50 (THP1) [µM] | IC50 (MCF7) [µM] | IC50 (HepG2) [µM] |
| --- | --- | --- | --- | --- | --- | --- | --- | --- | --- |
| O=c1[nH]ccc2cc(N3CCC(C4CCN(S(=O)(=O)c5ccccc5Cl)CC4)CC3)cc(Cl)c12 [Compound 1.16, 8-chloro-6-(1′-((2-chlorophenyl)sulfonyl)-[4,4′-bipiperidin]-1-yl)isoquinolin-1(2H)-one] | 14.9 | – | – | – | – | – | – | – | – |
| CC(C)(C(=O)N1CCC(N2CCN(c3cc(Cl)c4c(=O)[nH]ccc4c3)CC2)CC1)C(F)(F)F [Compound 1.21, 8-chloro-6-(4-(1-(3,3,3-trifluoro-2,2-dimethylpropanoyl)piperidin-4-yl)piperazin-1-yl)isoquinolin-1(2H)-one] | > 30 | 0.111 | – | – | – | – | – | – | – |
| CC(C)(C(=O)N1CCC(C2CCN(c3cc(Cl)c4c(=O)[nH]ccc4c3)CC2)CC1)C(F)(F)F [Compound 1.23, 8-chloro-6-(1′-(3,3,3-trifluoro-2,2-dimethylpropanoyl)-4,4′-bipiperidin-1-yl)isoquinolin-1(2H)-one] | 1.5 | – | – | – | – | – | – | – | – |
| CN(C)C(=O)c1ccc(N2CCC(N3CC4(CN(C(=O)[C@](O)(c5ccccc5)C(F)(F)F)C4)C3)CC2)cc1Cl [Compound 1.55, 2-chloro-N,N-dimethyl-4-(4-(6-((R)-3,3,3-trifluoro-2-hydroxy-2-phenylpropanoyl)-2,6-diazaspiro[3.3]heptan-2-yl)piperidin-1-yl)benzamide] | – | – | 16.3 | > 30 | > 30 | > 30 | > 30 | > 30 | > 30 |
| CN(C)C(=O)c1ccc(N[C@@H]2CCN(C3CCN(C(=O)[C@](O)(c4ccccc4)C(F)(F)F)CC3)C2)cc1Cl [Compound 1.57, 2-chloro-N,N-dimethyl-4-((R)-1-(1-((R)-3,3,3-trifluoro-2-hydroxy-2-phenylpropanoyl)piperidin-4-yl)pyrrolidin-3-ylamino)benzamide] | – | – | 2.82 | > 30 | > 30 | > 30 | > 30 | > 30 | > 30 |
